# Tests used:
# PTX3 gene [1] = settings: constant expression in synovial cells; Clin. Exp. Immunol., 119(1), 196-202 (2000); cited from earlier work
# PTX3 gene [2] = assay: PTX3 gene expression by RT-PCR and agarose gel electrophoresis in HCASMC; assay type: cell-based, human; settings: 1 μmol/L and 10 μmol/L, both 8 hours later and 24 hours later
# Description: (§1) Two days after inoculation of HUVEC at 3×10^5 cells/10 cm dish, pitavastatin calcium or atorvastatin calcium was added to 1.1 μmol/L and 6.6 μmol/L, respectively. To ascertain possible concentration dependency of PTX3 gene expression suppressing effect of pitavastatin, pitavastatin calcium was also added to 1 μmol/L and 10 μmol/L upon elapsed time of 2 days after inoculation of HUCEC or HCASMC at 3×10^5 cells/10 cm dish. To controls under the respective conditions, dimethyl sulfoxide, a solvent for both of the active ingredients, was added (final concentration: 0.0066 v/v %) Eight or 24 hours after the addition, total RNA was extracted with “ISOGEN” (trade mark, product of NIPPON GENE CO., LTD.). The total RNA was subjected to RT-PCR in a manner known per se in the art, and amplified DNA fragments were subjected to agarose gel electrophoresis to compare expression levels. • Reaction conditions and the like for PT-PCR:
# (§2) PT reaction: Conducted using “RNA PCR Core Kit” (trade name, product of Roche Molecular Systems, Inc.).
# PCR: Using “Expanded™ High Fidelity PCR System” (trade name, manufactured of Boehringer Mannheim AG), thermal cycling was conducted through 25 cycles according to the following schemes: 95° C. for 1 minute—57° C. for 1 minute—72° C. for 1 minute. […]
# PTX3 gene [3] = assay: PTX3 gene expression analysis by GeneChip array in HUVEC; assay type: cell-based, human; settings: 8 hours after addition, control 1113.0
# Description: (§3) Two days after inoculation of normal human umbilical vein endothelial cells (HUVEC) or human coronary artery smooth muscle cells (HCASMC) at 3×10^5 cells/10 cm dish, pitavastatin calcium or atorvastatin calcium was added to 1.1 μmol/L and 6.6 μmol/L, respectively. Dimethyl sulfoxide, a solvent for both of the active ingredients, was added to a control (final concentration: 0.0066 v/v %). Eight hours after the addition, total RNA was extracted with “ISOGEN” (trade mark, product of NIPPON GENE CO., LTD.). The following procedures was conducted in accordance with the procedures manual of Affymetrix. Inc. Described specifically, mRNA was isolated from the above-obtained total RNA, and based on the mRNA, cDNA was synthesized. Further, biotin-labeled cRNA was synthesized by in vitro transcription. Subsequent to purification, the biotin-labeled cRNA was subjected to fragmentation by heat treatment to prepare fragmented cRNA for use in a gene expression analysis.
# (§4) Gene expression analysis method: The fragmented CRNA was poured into “Hugene Human FL Array” (trade name, product of Affymetrix, Inc.), and hybridization was conducted at 45° C. for 16 hours. […] The information was analyzed by “GENECHIP SOFTWARE” (trade name, product of Affymetrix, Inc.) to compare expression levels.
# PTX3 gene [4] = assay: PTX3 gene expression analysis by GeneChip array in HCASMC; assay type: cell-based, human; settings: 8 hours after addition, control 1028.3
# Description: as §3, §4
# PTX3 gene [5] = assay: PTX3 gene expression by RT-PCR and agarose gel electrophoresis in HUVEC; assay type: cell-based, human; settings: both 8 hours later and 24 hours later
# Description: as §1, §2
# PCR: Using “Expanded™ High Fidelity PCR System” (trade name, manufactured of Boehringer Mannheim AG), thermal cycling was conducted through 25 cycles according to the following schemes: 95° C. for 1 minute—57° C. for 1 minute—72° C. for 1 minute. Incidentally, as PCR primers, the followings were used in sets: SEQ ID No:1 (Forward) and SEQ ID No: 2 (Reverse) in the case of PTX3; base SEQ ID No:3 (Forward) and SEQ ID No: 4 (Reverse) in the case of GAPDH.
molecule,measurement,setting,value
TGF-β,expression of PTX3 gene in synovial cells of a rheumatoid arthritis patient,PTX3 gene [1],suppressed
"O=C(O)C[C@H](O)C[C@H](O)/C=C/c1c(C2CC2)nc2ccccc2c1-c1ccc(F)cc1 [pitavastatin calcium, (3R,5S, 6 E)-7-[2-cyclopropyl-4-(4-fluorophenyl)-3-quinolyl]-3,5-dihydroxy-6-heptenoic acid]",concentration dependency of PTX3 gene expression suppression in HCASMC (RT-PCR),PTX3 gene [2],concentration-dependently suppressed
same,expression of PTX3 gene in HUVEC,PTX3 gene [3]; 1.1 μmol/L,32.7
same,expression of PTX3 gene in HCASMC,PTX3 gene [4]; 1.1 μmol/L,452.5
same,concentration dependency of PTX3 gene expression suppression in HUVEC (RT-PCR),PTX3 gene [5]; 1 μmol/L and 10 μmol/L,concentration-dependently suppressed
same,expression of PTX3 gene in HUVEC compared with the control (RT-PCR),PTX3 gene [5]; 1.1 μmol/L,suppressed
"CC(C)c1c(C(=O)Nc2ccccc2)c(-c2ccccc2)c(-c2ccc(F)cc2)n1CC[C@@H](O)C[C@@H](O)CC(=O)O [atorvastatin calcium, (3R,5R)-7-[2-(4-fluorophenyl)-5-isopropyl-3-phenyl-4-phenylcarbamonyl-1H-pyrrol-1-yl]-3,5-dihydroxyheptanoic acid]",expression of PTX3 gene in HUVEC,PTX3 gene [3]; 6.6 μmol/L,39.2
same,expression of PTX3 gene in HCASMC,PTX3 gene [4]; 6.6 μmol/L,432.1
same,expression of PTX3 gene in HUVEC compared with the control (RT-PCR),PTX3 gene [5]; 6.6 μmol/L,suppressed
"IFN-γ: inteferon-γ (IFN-γ), known from literature to suppress PTX3 gene expression",expression of PTX3 gene in synovial cells of a rheumatoid arthritis patient,PTX3 gene [1],suppressed

# From patent publication US20080161348A1, “PTX3-GENE EXPRESSION INHIBITOR” (KOWA CO., LTD., priority 2002, published 2008)
